Numbered stars: 1 amine (or outer) side, 2 acyl side, 3 side chain; on linkers, the order of the positions; unused ones are H or OH. Bridge positions count the residues as written; N and C are the ends. Square brackets hold non-standard residues; d marks the D form. Peptide text beside a SMILES is read from it. * marks the point of attachment. Bip = N[C@@H](Cc1ccc(-c2ccccc2)cc1)C(=O)O; Phe(3-Me) = Cc1cccc(C[C@H](N)C(=O)O)c1; γGlu = O=C(O)[C@H](CCC(=O)[*:2])N[*:1]; βAsp = O=C(O)[C@H](CC(=O)[*:2])N[*:1]; Cha = N[C@@H](CC1CCCCC1)C(=O)O; Cit = NC(=O)NCCC[C@H](N)C(=O)O; Carboxymethyl = O=C(O)C*; Orn = NCCC[C@H](N)C(=O)O; Aun = NCCCCCCCCCCC(=O)O; Dab = NCC[C@H](N)C(=O)O; Dap = NC[C@H](N)C(=O)O; AEEA = NCCOCCOCC(=O)O
Target: T1, PD-1/PD-L1 interaction (PE-labeled human PD-L1-Ig binding to Jurkat cell line over-expressing human PD-1) (Homo sapiens, UniProt Q15116)
T1 construct: expressed in transfected cells; host or cells: Jurkat
T1 sequence (Q15116 25-288): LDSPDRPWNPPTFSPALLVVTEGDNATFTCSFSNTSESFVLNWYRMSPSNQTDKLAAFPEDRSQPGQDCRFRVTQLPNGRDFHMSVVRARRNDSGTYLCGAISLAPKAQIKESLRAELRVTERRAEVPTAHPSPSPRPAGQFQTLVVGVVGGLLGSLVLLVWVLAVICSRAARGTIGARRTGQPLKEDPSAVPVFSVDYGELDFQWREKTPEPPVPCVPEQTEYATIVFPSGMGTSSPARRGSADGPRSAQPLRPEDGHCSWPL
Assay: Jurkat-PD-1 Cell Binding High-Content Screening Assay (CBA)
Type: cell-based
Details: Jurkat cell line over-expressing human PD-1; PE-labeled PD-L1-Ig 20 nM final; read-out: Jurkat hPD1-PDL1 IC50
Experimental: Example 2: Jurkat-PD-1 Cell Binding High-Content Screening Assay (CBA)
Phycoerythrin (PE) was covalently linked to the Ig epitope tag of human PD-L1-Ig and fluorescently-labeled PD-L1-Ig was used for binding studies with a Jurkat cell line over-expressing human PD-1 (Jurkat-PD-1). Briefly, 8×10^3 Jurkat-hPD-1 cells were seeded into 384 well plates in 20 μl of DMEM supplemented with 10% fetal calf serum. 100 nl of compound was added to cells followed by incubation at 37° C. for 2 h. Then, 5 μl of PE-labeled PD-L1-Ig (20 nM final), diluted in DMEM supplemented with 10% fetal calf serum. After 1 hour incubation, cells were fixed with 4% paraformaldehyde in dPBS containing 10 μg/ml Hoechst 33342 and then washed 3× in 100 μl dPBS. Data was collected and processed using a Cell Insight NXT High Content Imager and associated software.

Structure (SMILES) | IC50
Cc1cccc(C[C@@H]2NC(=O)[C@H](CC(=O)O)NC(=O)[C@H](Cc3ccc(OCC(=O)O)cc3)NC(=O)[C@H](CN)NC(=O)CSC[C@@H](C(=O)N[C@@H](C)C(=O)N[C@@H](CC(=O)NCC(=O)NCCCCCCCCCCC(=O)O)C(=O)O)NC(=O)[C@H]([C@@H](C)O)NC(=O)[C@H](C(C)C)NC(=O)[C@H](CC3CCCCC3)NC(=O)[C@H](CCN)NC(=O)[C@@H](CC(C)C)NC(=O)[C@H](CCCN)NC(=O)[C@H](CCCNC(N)=O)NC(=O)[C@H](Cc3ccc(-c4ccccc4)cc3)NC(=O)[C@H](C(C)C)NC2=O)c1 [Compound 1012] ({CH2CO}-[Dap]Y(Carboxymethyl)D[Phe(3-Me)]V[Bip][Cit][Orn][dL][Dab][Cha]VTCA[βAsp]G[Aun]-OH; thioether N-14) | 5 nM
Cc1cccc(C[C@@H]2NC(=O)[C@H](CC(=O)O)NC(=O)[C@H](Cc3ccc(OCC(=O)O)cc3)NC(=O)[C@H](CN)NC(=O)CSC[C@@H](C(=O)N[C@@H](C)C(=O)N[C@@H](CC(=O)O)C(=O)NCCOCCOCC(=O)N[C@@H](CC(=O)O)C(=O)NCCOCCOCC(=O)NCCCCCCCCCCC(=O)O)NC(=O)[C@H]([C@@H](C)O)NC(=O)[C@H](C(C)C)NC(=O)[C@H](CC3CCCCC3)NC(=O)[C@H](CCN)NC(=O)[C@@H](CC(C)C)NC(=O)[C@H](CCCN)NC(=O)[C@H](CCCNC(N)=O)NC(=O)[C@H](Cc3ccc(-c4ccccc4)cc3)NC(=O)[C@H](C(C)C)NC2=O)c1 [Compound 1013] ({CH2CO}-[Dap]Y(Carboxymethyl)D[Phe(3-Me)]V[Bip][Cit][Orn][dL][Dab][Cha]VTCAD[AEEA]D[AEEA][Aun]-OH; thioether N-14) | 11.9 nM
Cc1cccc(C[C@@H]2NC(=O)[C@H](CC(=O)O)NC(=O)[C@H](Cc3ccc(OCC(=O)O)cc3)NC(=O)[C@H](CN)NC(=O)CSC[C@@H](C(=O)N[C@@H](C)C(=O)N[C@@H](CC(=O)O)C(=O)NCCOCCOCC(=O)N[C@@H](CCC(=O)NCCOCCOCC(=O)NCCCCCCCCCCC(=O)O)C(=O)O)NC(=O)[C@H]([C@@H](C)O)NC(=O)[C@H](C(C)C)NC(=O)[C@H](CC3CCCCC3)NC(=O)[C@H](CCN)NC(=O)[C@@H](CC(C)C)NC(=O)[C@H](CCCN)NC(=O)[C@H](CCCNC(N)=O)NC(=O)[C@H](Cc3ccc(-c4ccccc4)cc3)NC(=O)[C@H](C(C)C)NC2=O)c1 [Compound 1014] ({CH2CO}-[Dap]Y(Carboxymethyl)D[Phe(3-Me)]V[Bip][Cit][Orn][dL][Dab][Cha]VTCAD[AEEA][γGlu][AEEA][Aun]-OH; thioether N-14) | 5.5 nM
Cc1cccc(C[C@@H]2NC(=O)[C@H](CC(=O)O)NC(=O)[C@H](Cc3ccc(OCC(=O)O)cc3)NC(=O)[C@H](CN)NC(=O)CSC[C@@H](C(=O)N[C@@H](C)C(=O)N[C@@H](CCC(=O)O)C(=O)NCCOCCOCC(=O)N[C@@H](CCC(=O)NCCOCCOCC(=O)NCCCCCCCCCCC(=O)O)C(=O)O)NC(=O)[C@H]([C@@H](C)O)NC(=O)[C@H](C(C)C)NC(=O)[C@H](CC3CCCCC3)NC(=O)[C@H](CCN)NC(=O)[C@@H](CC(C)C)NC(=O)[C@H](CCCN)NC(=O)[C@H](CCCNC(N)=O)NC(=O)[C@H](Cc3ccc(-c4ccccc4)cc3)NC(=O)[C@H](C(C)C)NC2=O)c1 [Compound 1015] ({CH2CO}-[Dap]Y(Carboxymethyl)D[Phe(3-Me)]V[Bip][Cit][Orn][dL][Dab][Cha]VTCAE[AEEA][γGlu][AEEA][Aun]-OH; thioether N-14) | 7.9 nM
Cc1cccc(C[C@@H]2NC(=O)[C@H](CC(=O)O)NC(=O)[C@H](Cc3ccc(OCC(=O)O)cc3)NC(=O)[C@H](CN)NC(=O)CSC[C@@H](C(=O)N[C@@H](C)C(=O)N[C@@H](CC(=O)O)C(=O)NCCOCCOCC(=O)N[C@@H](CCC(=O)O)C(=O)NCCOCCOCC(=O)NCCCCCCCCCCC(=O)O)NC(=O)[C@H]([C@@H](C)O)NC(=O)[C@H](C(C)C)NC(=O)[C@H](CC3CCCCC3)NC(=O)[C@H](CCN)NC(=O)[C@@H](CC(C)C)NC(=O)[C@H](CCCN)NC(=O)[C@H](CCCNC(N)=O)NC(=O)[C@H](Cc3ccc(-c4ccccc4)cc3)NC(=O)[C@H](C(C)C)NC2=O)c1 [Compound 1016] ({CH2CO}-[Dap]Y(Carboxymethyl)D[Phe(3-Me)]V[Bip][Cit][Orn][dL][Dab][Cha]VTCAD[AEEA]E[AEEA][Aun]-OH; thioether N-14) | 6 nM
Cc1cccc(C[C@@H]2NC(=O)[C@H](CC(=O)O)NC(=O)[C@H](Cc3ccc(OCC(=O)O)cc3)NC(=O)[C@H](CN)NC(=O)CSC[C@@H](C(=O)N[C@@H](C)C(=O)N[C@@H](CC(=O)NCCOCCOCC(=O)N[C@@H](CCC(=O)NCCOCCOCC(=O)NCCCCCCCCCCC(=O)O)C(=O)O)C(=O)O)NC(=O)[C@H]([C@@H](C)O)NC(=O)[C@H](C(C)C)NC(=O)[C@H](CC3CCCCC3)NC(=O)[C@H](CCN)NC(=O)[C@@H](CC(C)C)NC(=O)[C@H](CCCN)NC(=O)[C@H](CCCNC(N)=O)NC(=O)[C@H](Cc3ccc(-c4ccccc4)cc3)NC(=O)[C@H](C(C)C)NC2=O)c1 [Compound 1018] ({CH2CO}-[Dap]Y(Carboxymethyl)D[Phe(3-Me)]V[Bip][Cit][Orn][dL][Dab][Cha]VTCA[βAsp][AEEA][γGlu][AEEA][Aun]-OH; thioether N-14) | 8.4 nM
Cc1cccc(C[C@@H]2NC(=O)[C@H](CC(=O)O)NC(=O)[C@H](Cc3ccc(OCC(=O)O)cc3)NC(=O)[C@H](CN)NC(=O)CSC[C@@H](C(=O)N[C@@H](C)C(=O)N[C@@H](CC(=O)NCCOCCOCC(=O)N[C@@H](CC(=O)O)C(=O)NCCOCCOCC(=O)NCCCCCCCCCCC(=O)O)C(=O)O)NC(=O)[C@H]([C@@H](C)O)NC(=O)[C@H](C(C)C)NC(=O)[C@H](CC3CCCCC3)NC(=O)[C@H](CCN)NC(=O)[C@@H](CC(C)C)NC(=O)[C@H](CCCN)NC(=O)[C@H](CCCNC(N)=O)NC(=O)[C@H](Cc3ccc(-c4ccccc4)cc3)NC(=O)[C@H](C(C)C)NC2=O)c1 [Compound 1019] ({CH2CO}-[Dap]Y(Carboxymethyl)D[Phe(3-Me)]V[Bip][Cit][Orn][dL][Dab][Cha]VTCA[βAsp][AEEA]D[AEEA][Aun]-OH; thioether N-14) | 6.8 nM
Cc1cccc(C[C@@H]2NC(=O)[C@H](CC(=O)O)NC(=O)[C@H](Cc3ccc(OCC(=O)O)cc3)NC(=O)[C@H](CN)NC(=O)CSC[C@@H](C(=O)N[C@@H](C)C(=O)N[C@@H](CC(=O)NCCOCCOCC(=O)N[C@@H](CCC(=O)O)C(=O)NCCOCCOCC(=O)NCCCCCCCCCCC(=O)O)C(=O)O)NC(=O)[C@H]([C@@H](C)O)NC(=O)[C@H](C(C)C)NC(=O)[C@H](CC3CCCCC3)NC(=O)[C@H](CCN)NC(=O)[C@@H](CC(C)C)NC(=O)[C@H](CCCN)NC(=O)[C@H](CCCNC(N)=O)NC(=O)[C@H](Cc3ccc(-c4ccccc4)cc3)NC(=O)[C@H](C(C)C)NC2=O)c1 [Compound 1020] ({CH2CO}-[Dap]Y(Carboxymethyl)D[Phe(3-Me)]V[Bip][Cit][Orn][dL][Dab][Cha]VTCA[βAsp][AEEA]E[AEEA][Aun]-OH; thioether N-14) | 8.3 nM
Cc1cccc(C[C@@H]2NC(=O)[C@H](CC(=O)O)NC(=O)[C@H](Cc3ccc(OCC(=O)O)cc3)NC(=O)[C@H](CN)NC(=O)CSC[C@@H](C(=O)N[C@@H](C)C(=O)N[C@@H](CC(=O)O)C(=O)NCCOCCOCC(=O)N[C@@H](CC(=O)NCCOCCOCC(=O)NCCCCCCCCCCC(=O)O)C(=O)O)NC(=O)[C@H]([C@@H](C)O)NC(=O)[C@H](C(C)C)NC(=O)[C@H](CC3CCCCC3)NC(=O)[C@H](CCN)NC(=O)[C@@H](CC(C)C)NC(=O)[C@H](CCCN)NC(=O)[C@H](CCCNC(N)=O)NC(=O)[C@H](Cc3ccc(-c4ccccc4)cc3)NC(=O)[C@H](C(C)C)NC2=O)c1 [Compound 1021] ({CH2CO}-[Dap]Y(Carboxymethyl)D[Phe(3-Me)]V[Bip][Cit][Orn][dL][Dab][Cha]VTCAD[AEEA][βAsp][AEEA][Aun]-OH; thioether N-14) | 8.3 nM
Cc1cccc(C[C@@H]2NC(=O)[C@H](CC(=O)O)NC(=O)[C@H](Cc3ccc(OCC(=O)O)cc3)NC(=O)[C@H](CN)NC(=O)CSC[C@@H](C(=O)N[C@@H](C)C(=O)N[C@@H](CCC(=O)O)C(=O)NCCOCCOCC(=O)N[C@@H](CC(=O)NCCOCCOCC(=O)NCCCCCCCCCCC(=O)O)C(=O)O)NC(=O)[C@H]([C@@H](C)O)NC(=O)[C@H](C(C)C)NC(=O)[C@H](CC3CCCCC3)NC(=O)[C@H](CCN)NC(=O)[C@@H](CC(C)C)NC(=O)[C@H](CCCN)NC(=O)[C@H](CCCNC(N)=O)NC(=O)[C@H](Cc3ccc(-c4ccccc4)cc3)NC(=O)[C@H](C(C)C)NC2=O)c1 [Compound 1022] ({CH2CO}-[Dap]Y(Carboxymethyl)D[Phe(3-Me)]V[Bip][Cit][Orn][dL][Dab][Cha]VTCAE[AEEA][βAsp][AEEA][Aun]-OH; thioether N-14) | 5.7 nM
Cc1cccc(C[C@@H]2NC(=O)[C@H](CC(=O)O)NC(=O)[C@H](Cc3ccc(OCC(=O)O)cc3)NC(=O)[C@H](CN)NC(=O)CSC[C@@H](C(=O)N[C@@H](C)C(=O)N[C@@H](CC(=O)NCCCCCCCCCCC(=O)O)C(=O)O)NC(=O)[C@H]([C@@H](C)O)NC(=O)[C@H](C(C)C)NC(=O)[C@H](CC3CCCCC3)NC(=O)[C@H](CCN)NC(=O)[C@@H](CC(C)C)NC(=O)[C@H](CCCN)NC(=O)[C@H](CCCNC(N)=O)NC(=O)[C@H](Cc3ccc(-c4ccccc4)cc3)NC(=O)[C@H](C(C)C)NC2=O)c1 [Compound 1023] ({CH2CO}-[Dap]Y(Carboxymethyl)D[Phe(3-Me)]V[Bip][Cit][Orn][dL][Dab][Cha]VTCA[βAsp][Aun]-OH; thioether N-14) | 7.9 nM

Reference: patent US20260022142A1, “MACROCYCLIC IMMUNOMODULATORS” (Bristol-Myers Squibb Company, priority 2022, published 2026)
